The subject of assay [1] is GPR65 KO HeLa cells + pLX empty vector. As to the kind of experiment: cAMP detection, GPR65 KO HeLa + empty pLX vector (null control). Conditions: HeLa GPR65 KO + pLX, pH 7.1, 30 min, normalized to DMSO and 100 μM forskolin. Format: cell-based, human. Here is the method: The Lance Ultra cAMP Kit (PerkinElmer, TRF0264) was used for cAMP detection, and included the following reagents: ULight anti-cAMP antibody, Eu-cAMP tracer, 7.5% BSA Stabilizer solution, and cAMP detection buffer. Stimulation buffer was prepared as described by the kit manufacturer as follows: Hanks buffered saline solution (HBSS, Life Technologies, 14025-126) containing 0.5 mM IBMX (3-isobutyl-1-methylxanthine, Sigma-Aldrich, I7018) and buffered with 1 M Hepes (15630-080). Stimulation buffer was then adjusted to pH 7.1 using 12 N HCl. HeLa cells were lifted using Versene and then suspended at 2.5 × 10^5 cells/ml in stimulation buffer. Cells were then plated at 20 μl per well (5000 cells per well) in white, opaque OptiPlate 384-well MicroPlates (PerkinElmer, 6007299) using a Thermo Fisher Scientific Combi liquid dispenser. Compounds, stored at 5 mM in DMSO for the primary screen, or in a range of concentrations from 39 μM to 20 mM for dose curves, were transferred by the CyBio CyBi-Well Vario pin transfer tool with 100-nl pins (V&P FP1NS50H, 50-nl slot, 0.457-mm diameter, hydrophobic coated), into each assay well, 100 nl per well for a final assay concentration of 25 μM for the primary screen, or 195 nM to 100 μM for dose curves. Assay plates were then incubated at RT for 30 min. Eu-cAMP tracer was diluted 1:33 into detection buffer and the final solution then distributed into assay wells, 5 μl per well. ULight anti-cAMP antibody was diluted 1:100 into detection buffer, then distributed into assay wells, also 5 μl per well. Assay plates were then incubated at RT in the dark for 1 hour. Eu-cAMP tracer and Förster resonance energy transfer (FRET) emissions were then read using a PerkinElmer EnVision Multimode plate reader (ENVISION21040010), exciting each well at 320 nm [UV2 (TRF) 320 filter] and reading emissions at 615 nm (Europium 615 filter) and 665 nm (APC665 filter). Data analysis was performed using Genedata Screener and GraphPad Prism.
HeLa KO cell lines were generated using the px330 plasmid CRISPR system as previously described ([18]). Briefly, HeLa cells were transfected with a Cas9 vector containing a gene-specific single-guide RNA to target the GPR65 coding exon. Forty-eight to 72 hours after transfection, single clones were obtained through limiting dilution and then sequenced to validate the KO. Reconstituted cell lines were produced by transducing KO cells with empty lentivirus or lentivirus containing hGPR65 or mGPR65. After 48 hours, cells were treated with puromycin (3 μg/ml; InvivoGen, ant-pr-1) and resistant cells were used in experiments.

Assay [2] has as its target T1, hGPR65 (Homo sapiens, UniProt Q8IYL9).
T1 construct: expressed in transfected cells; host or cells: HeLa (ATCC CCL-2), lentiviral transduction, pLX317
As to the kind of experiment: cAMP detection in HeLa expression cell line, hGPR65. In kind it is cell-based. As to conditions: for Emax: HeLa, relative to 100uM forskolin (100%) and DMSO (0%), read-out: hGPR Max Activity %; for cAMP production relative to BRD2813, hGPR65: pH 7.2. In short, it runs like this:
(§1)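 Compound was dispensed from a 10 mM DMSO stock, and puromycin-selected HeLa lines carrying lentiviral V5-tagged receptor were added at 1500 cells/well in pH 7.2 stimulation buffer. After 30 min stimulation at room temperature, cells were lysed and detection ran 1 h in the dark before cAMP TR-FRET reading.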

The subject of assay [3] is GFP-expressing HeLa cells. As to the kind of experiment: cAMP detection in HeLa expression cell line, GFP control. In kind it is cell-based, human. As to conditions: Homo sapiens, HeLa; for Emax: relative to 100uM forskolin (100%) and DMSO (0%), read-out: GFP Max Activity %. As to the method:
HeLa stable expression cell lines were produced by lentiviral transduction. Briefly, lentiviral plasmids for each GPCR with a C-terminal V5 Tag ([…]) were made in a pLX317 backbone using competent Escherichia coli (New England Biolabs, C3050H). Lenti-X 293 T (Takara, 632810) cells were transfected with the lentiviral plasmids to produce virus. Low-passage HeLa cells (American Type Culture Collection, CCL-2) were then transduced with lentivirus. After 48 hours, HeLa cells were cultured under selection with puromycin (3 μg/ml) and allowed to recover and expand before storing stocks in liquid nitrogen.
cAMP was measured in cells using the Lance Ultra cAMP Kit. HeLa cells were cultured under puromycin (3 μg/ml) selection. One day before the experiment, cells were seeded in T75 flasks and allowed to adhere overnight. On the day of the experiment, cells were washed twice with Dulbecco’s PBS and lifted using prewarmed 1× versene solution (Gibco, 15040066). Cells were counted in HBSS (Gibco, 14025092) and then resuspended in stimulation buffer prepared according to the manufacturer’s instructions and adjusted to pH 7.2 using 1 M sodium hydroxide. Cells were added to the plate at a density of 1500 cells per well in white opaque 384-well assay ready microplates containing 100 nl of 10 mM compound in DMSO. Cells were stimulated for 30 min at RT, then lysed and incubated with detection reagents for 1 hour in the dark at RT. Plates were read on BMG Labtech PHERAstar FSX (excitation, 337 nm; emission, 620 and 665 nm). Data analysis was performed using GraphPad Prism.

Assay [4] deals with T2, mGPR65 (Mus musculus, UniProt Q61038).
T2 construct: expressed in transfected cells; host or cells: HeLa (ATCC CCL-2), lentiviral transduction, pLX317
As to the kind of experiment: cAMP detection in HeLa expression cell line, mGPR65. In kind it is cell-based. Conditions: for pEC50: read-out: mGPR EC50; for Emax: HeLa, relative to 100uM forskolin (100%) and DMSO (0%), read-out: mGPR Max Activity %; for EC50: mGPR EC50 (uM); for cAMP production relative to BRD2813, mGPR65: pH 7.2. In short, it runs like this: as §1
Background: cAMP levels reflect the balance of adenylyl cyclase and phosphodiesterase activity.

Setting [5] is: 1st hGPR column pair, NA = no activity, read-out: hGPR EC50.
Where [6] appears, read: 2nd hGPR column pair, NA = no activity, read-out: hGPR EC50.
Setting [7] is: 1st hGPR column pair, NA = no activity.
The mark [8] stands for this setting: 2nd hGPR column pair, NA = no activity.
Where [9] appears, read: 2nd GFP column pair, NA = no activity.
[10] abbreviates: 1st mGPR column pair, NA = no activity.
The mark [11] stands for this setting: 2nd mGPR column pair, NA = no activity.
Setting [12] is: 1st GFP column pair, NA = no activity.

Each structure is given as a SMILES string. pEC50: −log10 of the molar value. Where two headings read alike, the source gives them in different places.

What is called pEC50 is the negative decadic logarithm of the EC50, by convention in mol/L. The term EC50 denotes the concentration needed to bring the measured effect to its halfway point. Lower therefore signals greater potency.

T2 sequence (Q61038 whole entry): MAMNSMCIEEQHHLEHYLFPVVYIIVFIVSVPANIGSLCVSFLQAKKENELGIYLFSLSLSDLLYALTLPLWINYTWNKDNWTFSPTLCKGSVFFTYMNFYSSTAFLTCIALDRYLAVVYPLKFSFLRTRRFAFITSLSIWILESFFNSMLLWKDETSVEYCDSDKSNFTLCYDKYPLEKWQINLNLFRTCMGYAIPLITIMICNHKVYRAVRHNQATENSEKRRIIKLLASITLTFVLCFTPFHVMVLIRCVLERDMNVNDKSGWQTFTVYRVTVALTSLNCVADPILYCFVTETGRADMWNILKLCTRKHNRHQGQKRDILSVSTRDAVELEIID
T1 sequence (Q8IYL9 whole entry): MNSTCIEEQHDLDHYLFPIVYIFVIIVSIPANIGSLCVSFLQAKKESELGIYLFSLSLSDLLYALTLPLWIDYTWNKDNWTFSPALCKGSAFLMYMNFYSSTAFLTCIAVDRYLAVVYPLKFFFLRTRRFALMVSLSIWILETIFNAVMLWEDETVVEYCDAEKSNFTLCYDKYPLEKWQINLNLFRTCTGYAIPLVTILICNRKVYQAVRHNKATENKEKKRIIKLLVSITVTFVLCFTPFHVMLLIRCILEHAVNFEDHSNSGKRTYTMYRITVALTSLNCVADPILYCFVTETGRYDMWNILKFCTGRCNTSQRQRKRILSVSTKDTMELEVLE

On to `CC(C)CCn1c(Sc2nc3ccccc3s2)nc2c1c(=O)[nH]c(=O)n2C` [BRD-K74743357-001-08-3], for which, in assay [1], the pEC50 is 4.11.
The same measure, in the same setting: as for `O=C(CSc1ncnc2sc3c(c12)CCCC3)Nc1nccs1` [BRD-K40136431-001-02-4], the figure is < 4.00.
For `Cc1ccc(NC(=O)c2cnn3c(O)cc(-c4ccc(C(F)(F)F)cc4)nc23)cc1` [BRD5668], the negative logarithm of the EC50 (pEC50) in assay [2] (setting [5]) was 6.94; in assay [2] (setting [6]), 6.23; in assay [3] (setting [9]) it was 6.74; in assay [4] (setting [10]), 5.46; in assay [4] (setting [11]), 5.20. In addition, the Emax in assay [2] (setting [7]) was 77%; in assay [2] (setting [8]), 70.8%; in assay [3] (setting [9]), 1.82%; in assay [4] (setting [11]) it was -22.2%; in assay [4] (NA = no activity), -22.7%.
For `COc1cccc(-c2cc(O)n3ncc(C(=O)Nc4ccc(C)cc4)c3n2)c1` [BRD6202], the pEC50 was 5.89 in assay [2] (setting [5]); 5.76 in assay [2] (setting [6]); 5.50 in assay [3] (setting [12]); 6.71 in assay [3] (setting [9]); 6.42 in assay [4] (setting [10]); 6.35 in assay [4] (setting [11]). Further, the Emax was found to be 72.3% in assay [2] (setting [7]); 73.6% in assay [2] (setting [8]); 1.48% in assay [3] (setting [12]); 3.9% in assay [3] (setting [9]); 58.8% in assay [4] (setting [11]); 63.3% in assay [4] (NA = no activity).
Take `Cc1ccc(NC(=O)c2cnn3c(O)cc(-c4ccc(N5CCC(=O)CC5)cc4)nc23)cc1` [BRD8536]: the pEC50 in assay [2] (setting [5]) was 5.39; in assay [2] (setting [6]), 5.26; in assay [3] (setting [12]), 6.10; in assay [4] (setting [10]), 6.01; in assay [4] (setting [11]), 5.55. Besides, the Emax stood at 65.7% in assay [2] (setting [7]); 63.9% in assay [2] (setting [8]); 1.86% in assay [3] (setting [12]); 52.9% in assay [4] (setting [11]); 63.5% in assay [4] (NA = no activity).
On to `Cc1ccc(NC(=O)c2cnn3c(O)cc(-c4ccc(COC(C)C)cc4)nc23)cn1` [BRD5071], for which the pEC50 in assay [2] (setting [5]) is 6.00; in assay [2] (setting [6]), 5.72; in assay [3] (setting [12]) it was 4.60; in assay [4] (setting [10]), 5.81; in assay [4] (setting [11]), 5.79. In addition, the Emax in assay [2] (setting [7]) turned out to be 74.2%; in assay [2] (setting [8]), 60.4%; in assay [3] (setting [12]), 8.1%; in assay [4] (setting [11]), 61.2%; in assay [4] (NA = no activity) it was 60.5%.
Take `Cc1ccc(NC(=O)c2cnn3c(O)cc(-c4ccc(C(=O)N(C)C)cc4)nc23)cc1` [BRD5084]: the negative logarithm of the EC50 (pEC50) in assay [2] (setting [5]) was 5.70; in assay [2] (setting [6]) it was 5.91; in assay [3] (setting [12]), 4.94; in assay [3] (setting [9]) it was 4.47; in assay [4] (setting [10]), 5.53; in assay [4] (setting [11]), 5.79. The Emax in assay [2] (setting [7]) was 39.1%; in assay [2] (setting [8]), 40.2%; in assay [3] (setting [12]), 5.15%; in assay [3] (setting [9]) it was 7.64%; in assay [4] (setting [11]), 31.2%; in assay [4] (NA = no activity) it was 32.1%.
On to `Cc1ccc(NC(=O)c2cnn3c(O)cc(-c4ccc(C(N)=O)cc4)nc23)cc1` [BRD5082], for which the Emax was 0% in assay [2] (setting [7]), 14.2% in assay [3] (setting [12]), 7.17% in assay [3] (setting [9]) and 4.93% in assay [4] (NA = no activity). Also, in assay [2], the “cAMP production relative to BRD2813, hGPR65” value is recorded as “eliminated all cAMP activity”. The negative logarithm of the EC50 (pEC50) in assay [3] (setting [12]) is 4.41; in assay [3] (setting [9]), 4.75. Also, a half-maximal effect in assay [4] (NA = no activity) (EC50) was put at 12.3 µM. Moreover, in assay [4], the “cAMP production relative to BRD2813, mGPR65” value is given as “eliminated all cAMP activity”.
In the case of `Cc1ccc(NC(=O)c2cnn3c(O)cc(-c4ccc(N5CCN(C)CC5)cc4)nc23)cc1` [BRD7215], the Emax in assay [2] (setting [7]) is 48.2%; in assay [2] (setting [8]), 57.7%; in assay [3] (setting [9]) it was 7.18%; in assay [4] (setting [11]), 48.7%; in assay [4] (NA = no activity), 57.8%. The EC50 was determined as 2.74 µM in assay [2] (hGPR EC50 (uM), NA = no activity); 1.1 µM in assay [4] (setting [11]); 0.161 µM in assay [4] (NA = no activity). Moreover, the negative logarithm of the EC50 (pEC50) is 5.36 in assay [2] (hGPR EC50, NA = no activity) and 4.20 in assay [3] (setting [9]). Moreover, in assay [2], the “cAMP production relative to BRD2813, hGPR65” value was “decreasing cAMP production”. Also, the “cAMP production relative to BRD2813, mGPR65” value in assay [4] is recorded as “increasing activity”.
For the molecule `Cc1ccc(NC(=O)c2cnn3c(O)cc(-c4ccc(C5CCCCC5)cc4)nc23)cc1` [BRD5881], the Emax in assay [2] (first pair) stood at 39.5%; in assay [2] (second pair) it was 95.7%; in assay [3] (second pair) it was 1.64%; in assay [4] (second pair) it was 9.83%. The pEC50 in assay [2] (SAR cAMP assay, first EC50/Max pair of hGPR columns, read-out: hGPR EC50) is 5.41; in assay [2] (SAR cAMP assay, second EC50/Max pair of hGPR columns, read-out: hGPR EC50), 4.04; in assay [3] (SAR cAMP assay, second EC50/Max pair of GFP control columns), 6.34; in assay [4] (SAR cAMP assay, second EC50/Max pair of mGPR columns) it was 6.24.
For `Cc1ncc(NC(=O)c2cnn3c(O)cc(-c4ccc(COC(C)C)cc4)nc23)cn1` [BRD5072], the negative-log EC50 (pEC50) in assay [2] (setting [5]) is 5.09; in assay [2] (setting [6]), 5.16; in assay [3] (setting [12]), 5.16; in assay [3] (setting [9]), 6.43; in assay [4] (setting [10]) it was 5.32; in assay [4] (setting [11]), 5.30. Moreover, the Emax was 59.1% in assay [2] (setting [7]); 48.2% in assay [2] (setting [8]); 3.5% in assay [3] (setting [12]); 1.42% in assay [3] (setting [9]); 49% in assay [4] (setting [11]); 51.1% in assay [4] (NA = no activity).

(Values after PMC11259170, “Small-molecule probe for IBD risk variant GPR65 I231L alters cytokine signaling networks through positive allosteric modulation” (Science Advances, 2024).)
